Measurements taken from patent US4879273A (The Rockefeller University, priority 1987, dated 1989).
Where no end group is shown, it is not given here.

What was measured:
adenylate cyclase [1] = details: relative to glucagon = 100; liver membranes
Protocol: Adenylate Cyclase Assay. The assay on liver membranes was performed according to Salomon et al. [Salomon, Y., Londos, C. & Rodbell, M. Anal. Biochem. 58, 541,548 (1974)]. The released cAMP was mixed with [8-^3 H]cAMP measured with a high affinity cAMP binding protein.
The purpose of the adenylate cyclase assays is to measure the ability of the compound under test to stimulate the activity of adenylate cyclase. The assays are used to measure relative potency, maximum activity and inhibition index.
The inhibition index, defined above, was determined from adenylate cyclase assays by two different protocols.
2. […] Increasing amounts of antagonist were then added and the concentration that reduced the response to 45% of maximum was determined.

glucagon receptor = details: prior-art antagonist; cited from earlier work
hepatocyte membrane = details: prior-art antagonist; cited from earlier work
adenylate cyclase [2] = details: prior-art antagonist; cited from earlier work

Molecule | ADENYL CYCLASE ASSAYS Rel. Potency (adenylate cyclase [1]) | binding to the glucagon receptor (in words) (glucagon receptor) | activation of another binding system leading to inositol triphosphate and calcium ions (in words) (hepatocyte membrane) | activation of adenylate cyclase (in words) (adenylate cyclase [2])
CSCC[C@H](NC(=O)[C@H](CC(C)C)NC(=O)[C@H](Cc1c[nH]c2ccccc12)NC(=O)[C@H](CCC(N)=O)NC(=O)[C@@H](NC(=O)[C@H](Cc1ccccc1)NC(=O)[C@H](CC(=O)O)NC(=O)[C@H](CCC(N)=O)NC(=O)[C@H](C)NC(=O)[C@H](CCCNC(=N)N)NC(=O)[C@H](CCCNC(=N)N)NC(=O)[C@H](CO)NC(=O)[C@H](CC(=O)O)NC(=O)[C@H](CC(C)C)NC(=O)[C@H](Cc1ccc(O)cc1)NC(=O)[C@H](CCCCN)NC(=O)[C@H](CO)NC(=O)[C@H](Cc1ccc(O)cc1)NC(=O)[C@H](CCC(=O)O)NC(=O)[C@H](CO)NC(=O)[C@@H](NC(=O)[C@H](Cc1ccccc1)NC(=O)[C@@H](NC(=O)CNC(=O)[C@H](CCC(N)=O)NC(=O)[C@@H](N)CO)[C@@H](C)O)[C@@H](C)O)C(C)C)C(=O)N[C@@H](CC(N)=O)C(=O)N[C@H](C(=O)O)[C@@H](C)O [Compound 1, des-His^1-[Glu^9] glucagon] | < 0.0008 |  |  | 
SQGTFTSEYSKYLDSKKAQEFVQWLMNT [Compound 3, des-His^1-[Glu^9 -Lys^17,18 Glu^21] glucagon] | 0.0001 |  |  | 
Nα- trinitrophenyl [12-homoarginine] glucagon |  | does bind to the glucagon receptor | activates another binding system | without significant activation
CSCC[C@H](NC(=O)[C@H](CC(C)C)NC(=O)[C@H](Cc1c[nH]c2ccccc12)NC(=O)[C@H](CCC(N)=O)NC(=O)[C@@H](NC(=O)[C@H](Cc1ccccc1)NC(=O)[C@H](CC(=O)O)NC(=O)[C@H](CCC(N)=O)NC(=O)[C@H](C)NC(=O)[C@H](CCCNC(=N)N)NC(=O)[C@H](CCCNC(=N)N)NC(=O)[C@H](CO)NC(=O)[C@H](CC(=O)O)NC(=O)[C@H](CC(C)C)NC(=O)[C@H](Cc1ccc(O)cc1)NC(=O)[C@H](CCCCN)NC(=O)[C@H](CO)NC(=O)[C@H](Cc1ccc(O)cc1)NC(=O)[C@H](CCC(=O)O)NC(=O)[C@H](CO)NC(=O)[C@@H](NC(=O)[C@H](Cc1ccccc1)NC(=O)[C@@H](NC(=O)CNC(=O)[C@H](CCC(N)=O)NC(=O)[C@@H](N)CO)[C@@H](C)O)[C@@H](C)O)C(C)C)C(=O)N[C@@H](CC(N)=O)C(=O)N[C@H](C(N)=O)[C@@H](C)O [Compound 2, des-His^1-[Glu^9] glucagon amide] | < 0.0001 |  |  | 
